Experiments:
[1] = biological target: T1, 5-HT5A (Homo sapiens, UniProt P47898); assay: NIMH PDSP radioligand binding, 5-HT5A; conditions: radioligand [3H]LSD, n=4
T1 construct: purchased NIMH Psychoactive Drug Screening Program (PDSP)

[2] = biological target: T2, DAT (Homo sapiens, UniProt Q01959); assay: NIMH PDSP radioligand binding, DAT; conditions: radioligand [3H]WIN35428, n=4
T2 construct: purchased NIMH Psychoactive Drug Screening Program (PDSP)

[3] = biological target: T3, M5 (Homo sapiens, UniProt P08912); assay: NIMH PDSP radioligand binding, M5
T3 construct: purchased NIMH Psychoactive Drug Screening Program (PDSP)
T3 sequence (P08912 whole entry): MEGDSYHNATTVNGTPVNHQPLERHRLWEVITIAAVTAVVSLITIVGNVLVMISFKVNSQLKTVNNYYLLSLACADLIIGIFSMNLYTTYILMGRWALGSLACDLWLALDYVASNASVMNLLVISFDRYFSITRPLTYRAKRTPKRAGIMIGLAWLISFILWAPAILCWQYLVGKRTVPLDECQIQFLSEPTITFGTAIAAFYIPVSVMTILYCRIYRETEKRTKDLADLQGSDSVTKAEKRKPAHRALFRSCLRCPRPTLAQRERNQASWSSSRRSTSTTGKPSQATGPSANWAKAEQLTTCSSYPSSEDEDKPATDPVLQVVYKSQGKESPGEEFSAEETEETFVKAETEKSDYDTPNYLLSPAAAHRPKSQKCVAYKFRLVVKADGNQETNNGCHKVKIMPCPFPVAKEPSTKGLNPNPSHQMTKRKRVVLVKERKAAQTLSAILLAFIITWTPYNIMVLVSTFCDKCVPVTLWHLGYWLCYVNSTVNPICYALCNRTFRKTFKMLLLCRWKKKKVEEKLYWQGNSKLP

[4] = biological target: T4, mGAT2 (Mus musculus, UniProt P31649); assay: [3H]GABA uptake at mGAT2 stably expressed in HEK-293 cells; type: cell-based
T4 construct: expressed in transfected cells
T4 sequence (P31649 whole entry): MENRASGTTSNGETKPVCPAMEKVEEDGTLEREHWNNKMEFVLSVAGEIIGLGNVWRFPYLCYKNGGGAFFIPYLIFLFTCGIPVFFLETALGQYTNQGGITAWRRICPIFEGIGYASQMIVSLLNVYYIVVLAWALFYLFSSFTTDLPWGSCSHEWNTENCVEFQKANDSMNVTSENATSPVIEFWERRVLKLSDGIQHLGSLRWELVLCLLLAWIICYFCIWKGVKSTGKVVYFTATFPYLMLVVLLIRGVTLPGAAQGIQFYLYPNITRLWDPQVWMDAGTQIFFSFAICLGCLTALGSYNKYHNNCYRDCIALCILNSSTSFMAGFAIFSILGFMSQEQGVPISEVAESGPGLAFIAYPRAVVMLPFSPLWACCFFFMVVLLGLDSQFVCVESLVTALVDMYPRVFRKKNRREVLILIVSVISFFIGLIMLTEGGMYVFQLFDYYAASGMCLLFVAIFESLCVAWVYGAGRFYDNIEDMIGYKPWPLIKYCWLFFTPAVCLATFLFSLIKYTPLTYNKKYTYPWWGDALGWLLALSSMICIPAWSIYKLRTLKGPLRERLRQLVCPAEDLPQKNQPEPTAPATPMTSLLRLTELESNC
Description: The HEK-293 and Flp-In CHO cell lines stably expressing mouse (m) and human (h) GATs, respectively, have been described previously and were cultured accordingly. The tsA201 cell line was used for transient expression while the MDCK II cell line express BGT1 endogenously. Both cell lines were cultured as described. tsA201 cells were transfected with DNA constructs (8 μg per 10 cm dish if not otherwise mentioned) using 40 μL PolyFect transfection reagent according to the manufacturer’s protocol (Qiagen, Venlo, Netherlands). The DNA constructs encoding hBGT1, hGAT1-3 [36], the mutated constructs hBGT1 Q299 and hGAT3 L314Q described previously, and hBGT Y453A were synthesized and sequence validated by Genscript (NJ, USA).
The [^3H]GABA competition uptake assay was performed as previously described. A minor change, however, was introduced for uptake in MDCK II cells, in which 100 nM [^3H]GABA was used for a 15 min incubation period at 37 °C instead of 30 nM [^3H]GABA and 3 min incubation. Studies related to the inhibition curves with GABA and BPDBA at hBGT1 were obtained both with and without the presence of 10 μM ATP during the [^3H]GABA uptake assay.
The [^3H]GABA uptake data was normalized to the percentage of total uptake in the individual experiments in the presence of the lowest compound concentration or no compound present. […]

[5] = tested on: tsA201 cells transiently expressing hBGT1; assay: Fluo-4 Ca2+-assay in tsA201 cells transiently expressing hBGT1; type: cell-based, human; conditions: within the 3 min timeframe; blocked by BAPTA/AM
Description: Emission was recorded for 20 s. before adding the compounds (at 4 × concentrations) to the HBSS-HEPES buffer to determine the baseline. […] Data presented is the pooled data of at least three independent experiments with three technical replicates. Changes in fluorescence units (ΔFU) were determined as the maximum fluorescent signal within the 190 s minus the average of the baseline.

[6] = biological target: T5, 5-HT2A (Homo sapiens, UniProt P28223); assay: NIMH PDSP radioligand binding, 5-HT2A; conditions: radioligand [3H]ketanserin, n=4
T5 construct: purchased NIMH Psychoactive Drug Screening Program (PDSP)
T5 sequence (P28223 whole entry): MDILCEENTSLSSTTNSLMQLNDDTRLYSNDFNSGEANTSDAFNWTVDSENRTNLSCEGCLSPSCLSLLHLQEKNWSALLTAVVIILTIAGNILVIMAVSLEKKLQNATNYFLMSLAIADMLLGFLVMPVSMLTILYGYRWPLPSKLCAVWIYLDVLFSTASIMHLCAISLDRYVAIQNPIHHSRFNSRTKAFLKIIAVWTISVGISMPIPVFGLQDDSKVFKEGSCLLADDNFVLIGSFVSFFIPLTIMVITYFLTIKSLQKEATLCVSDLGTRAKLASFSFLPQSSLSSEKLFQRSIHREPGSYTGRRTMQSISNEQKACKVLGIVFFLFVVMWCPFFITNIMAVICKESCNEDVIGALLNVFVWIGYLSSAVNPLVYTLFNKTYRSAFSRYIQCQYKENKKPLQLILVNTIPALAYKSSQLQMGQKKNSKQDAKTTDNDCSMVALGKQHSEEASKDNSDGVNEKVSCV

[7] = biological target: T6, Alpha2B (Homo sapiens, UniProt P18089); assay: NIMH PDSP radioligand binding, Alpha2B; conditions: radioligand [3H]rauwolscine, n=4
T6 construct: purchased NIMH Psychoactive Drug Screening Program (PDSP)
T6 sequence (P18089 whole entry): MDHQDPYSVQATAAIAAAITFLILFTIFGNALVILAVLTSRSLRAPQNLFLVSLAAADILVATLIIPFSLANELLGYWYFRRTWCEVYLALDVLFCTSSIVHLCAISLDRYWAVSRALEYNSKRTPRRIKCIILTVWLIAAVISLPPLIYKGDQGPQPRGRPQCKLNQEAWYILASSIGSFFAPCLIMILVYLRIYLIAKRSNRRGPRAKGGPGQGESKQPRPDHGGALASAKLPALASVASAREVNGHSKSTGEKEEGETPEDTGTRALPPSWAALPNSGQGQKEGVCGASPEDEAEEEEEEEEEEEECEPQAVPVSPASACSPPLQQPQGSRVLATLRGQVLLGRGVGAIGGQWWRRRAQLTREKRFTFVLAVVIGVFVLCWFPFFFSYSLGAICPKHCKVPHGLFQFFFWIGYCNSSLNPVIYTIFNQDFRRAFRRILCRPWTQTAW

[8] = tested on: AGS Frings mice; assay: Audiogenic induced seizure test; type: in vivo, mouse
Description: Male audiogenic-susceptible (AGS) Frings mice were obtained from an in-house breeding facility at the University of Utah (Salt Lake City, UT, USA). Male CF-1 mice for the maximal electroshock (MES) test and the subcutaneous pentylenetetrazol (s.c.PTZ) seizure threshold test were purchased from Charles River (Kingston, WA, USA). All mice were housed in a temperature, humidity, and light (on at 6:00 AM) controlled facility at the University of Utah with access to ad libitum food and water except during testing. All procedures were carried out at the University of Utah in concordance with the National Institutes of Health Guidelines for the Care and Use of Laboratory Animals and under approval from the University of Utah’s Institutional Animal Care and Use Committee. The mice were euthanized in accordance with Public Health Service policies on the humane care of laboratory animals. […] The seizures were induced as previously described. In brief, Frings mice were placed in a Plexiglas cylinder (diameter 15 cm, height 18 cm) connected to an audio transducer and exposed to a sound stimulus of 110 decibel (11 kHz) for a duration of 20 s. […] Probit analysis was used to analyse the efficacy and tolerability results obtained from the dose–response studies and to calculate the median effective (ED50) dose, the median toxic dose (TD50), and the 95% confidence interval.

[9] = tested on: CF-1 mice; assay: Maximal electroshock (MES) test; type: in vivo, mouse; conditions: for #Protected/#Tested: 15 min
Description: Male audiogenic-susceptible (AGS) Frings mice were obtained from an in-house breeding facility at the University of Utah (Salt Lake City, UT, USA). Male CF-1 mice for the maximal electroshock (MES) test and the subcutaneous pentylenetetrazol (s.c.PTZ) seizure threshold test were purchased from Charles River (Kingston, WA, USA). All mice were housed in a temperature, humidity, and light (on at 6:00 AM) controlled facility at the University of Utah with access to ad libitum food and water except during testing. All procedures were carried out at the University of Utah in concordance with the National Institutes of Health Guidelines for the Care and Use of Laboratory Animals and under approval from the University of Utah’s Institutional Animal Care and Use Committee. The mice were euthanized in accordance with Public Health Service policies on the humane care of laboratory animals. […] This is a model of generalised tonic–clonic seizures, and was conducted as described previously. In brief, a drop of anaesthetic/electrolyte solution (0.5% tetracaine hydrochloride in 0.9% saline) was applied to the cornea of each animal prior to placement of the silver-coated corneal electrodes. An alternating current of 50 mA (60 Hz) was delivered for 0.2 s to the cornea of the mouse using a Woodbury–Davenport stimulator. The supramaximal current applied to the cornea was sufficient to induce maximal tonic extension seizures in all non-treated mice. […] Those mice not displaying full hind limb tonic extension seizures were considered protected. Probit analysis was used to analyse the efficacy and tolerability results obtained from the dose–response studies and to calculate the median effective (ED50) dose, the median toxic dose (TD50), and the 95% confidence interval.

T1 sequence (P47898 whole entry): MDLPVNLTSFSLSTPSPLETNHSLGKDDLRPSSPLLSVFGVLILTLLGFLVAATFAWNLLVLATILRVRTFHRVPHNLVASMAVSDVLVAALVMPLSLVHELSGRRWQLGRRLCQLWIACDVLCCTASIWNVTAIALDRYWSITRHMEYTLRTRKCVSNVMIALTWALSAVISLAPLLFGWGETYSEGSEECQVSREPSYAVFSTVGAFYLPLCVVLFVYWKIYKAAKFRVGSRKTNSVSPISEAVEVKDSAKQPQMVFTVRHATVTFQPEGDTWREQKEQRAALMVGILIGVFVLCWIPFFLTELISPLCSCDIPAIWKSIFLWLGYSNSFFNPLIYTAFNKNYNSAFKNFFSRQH
T2 sequence (Q01959 whole entry): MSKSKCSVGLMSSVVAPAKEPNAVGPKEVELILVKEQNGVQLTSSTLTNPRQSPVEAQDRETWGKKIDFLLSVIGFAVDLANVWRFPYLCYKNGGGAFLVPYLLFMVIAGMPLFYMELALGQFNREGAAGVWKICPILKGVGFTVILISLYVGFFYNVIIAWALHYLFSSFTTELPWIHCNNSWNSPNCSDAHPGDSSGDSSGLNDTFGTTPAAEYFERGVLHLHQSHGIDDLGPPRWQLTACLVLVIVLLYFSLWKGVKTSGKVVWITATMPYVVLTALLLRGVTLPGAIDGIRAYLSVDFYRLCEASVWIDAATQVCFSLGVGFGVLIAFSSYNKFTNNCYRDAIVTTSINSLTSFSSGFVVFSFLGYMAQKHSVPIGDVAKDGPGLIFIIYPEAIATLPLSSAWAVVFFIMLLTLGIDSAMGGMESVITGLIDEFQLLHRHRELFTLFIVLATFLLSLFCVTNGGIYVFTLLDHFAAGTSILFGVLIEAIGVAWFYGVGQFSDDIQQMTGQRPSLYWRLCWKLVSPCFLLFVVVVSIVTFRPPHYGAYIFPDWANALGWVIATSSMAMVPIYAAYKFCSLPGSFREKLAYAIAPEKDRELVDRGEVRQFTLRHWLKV

Cc1ccsc1C(=CCCN(C)[C@H]1CCCC[C@H]1C(=O)O)c1sccc1C [SBV2-114, (1R,2S)-2-((4,4-bis(3-methylthiophen-2-yl)but-3-en-yl)(methyl)amino)cyclohexanecarboxylic acid]
inhibition at 10 µM [1]: 36.6% | inhibition at 10 µM [2]: 36.9% | inhibition at 10 µM [3]: 23.5% | IC50 [4]: > 1000 µM | Fit ([4]; preferred model, N=3): Ambiguous | intracellular Ca2+ increase [5]: triggered an intracellular Ca^2+ increase at 200 μM and 500 μM | inhibition at 10 µM [6]: 20% | inhibition at 10 µM [7]: 24.9% | #Protected/#Tested ([8]; 50 mg/kg i.p., 15 min): 3/4 | #Protected/#Tested ([8]; 50 mg/kg i.p., 30 min): 2/4 | #Protected/#Tested ([8]; 50 mg/kg i.p., 60 min): 1/4 | #Protected/#Tested ([8]; 50 mg/kg i.p., 120 min): 0/4 | #Protected/#Tested ([8]; 120 mg/kg i.p., 30 min): 4/4 | #Protected/#Tested ([8]; 120 mg/kg i.p., 60 min): 3/4 | #Protected/#Tested ([8]; 120 mg/kg i.p., 120 min): 2/4 | #Protected/#Tested ([8]; 120 mg/kg i.p., 240 min): 1/4 | brain permeance ([8]; concluded from seizure protection after i.p. dosing): brain-permeant | time-to peak (TPE) ([8]; i.p., Frings mice, a faster TPE cannot be excluded): 15 min | #Protected/#Tested ([9]; 50 mg/kg i.p.): 0/3 | #Protected/#Tested ([9]; 100 mg/kg i.p.): 0/4 | #Protected/#Tested ([9]; 125 mg/kg i.p.): 2/7 | #Protected/#Tested ([9]; 150 mg/kg i.p.): 4/6 | #Protected/#Tested ([9]; 200 mg/kg i.p.): 4/4 | ED50 ([9]; Mus musculus, ip): 139 mg/kg
